Assay results as given in ChEMBL document CHEMBL1909046, “DrugMatrix in vitro pharmacology data”.

Tests used:
[1] = target: Glycine receptor (Rattus norvegicus, UniProt P22771+P24524+P07727+P20781); format: cell membranes, Wistar, Spinal cord, Membrane; note: in other assays of this panel Not Active means under 50% inhibition at 10 µM
[2] = DRUGMATRIX: Calcium Channel Type L, Dihydropyridine radioligand binding (ligand: [3H] Nitrendipine); format: cell membranes, Rattus norvegicus, Wistar, Cerebral cortex, Membrane; details: Not Active = under 50% inhibition at 10 µM
[3] = DRUGMATRIX: Atrial Natriuretic Factor (ANF) radioligand binding (ligand: [125I] ANF (rat)); format: cell membranes, Cavia porcellus, Dunkin-Hartley, Adrenal gland, Membrane; details: Not Active = under 50% inhibition at 10 µM
[4] = DRUGMATRIX: GABAA, Chloride Channel, TBOB radioligand binding (ligand: [3H] TBOB); format: cell membranes, Rattus norvegicus, Wistar, Cerebral cortex, Membrane; details: Not Active = under 50% inhibition at 10 µM
[5] = target: T1, Calcitonin receptor (Homo sapiens, UniProt P30988); format: cell membranes, Membrane; details: t47d; note: in other assays of this panel Not Active means under 50% inhibition at 10 µM
T1 sequence (P30988 whole entry): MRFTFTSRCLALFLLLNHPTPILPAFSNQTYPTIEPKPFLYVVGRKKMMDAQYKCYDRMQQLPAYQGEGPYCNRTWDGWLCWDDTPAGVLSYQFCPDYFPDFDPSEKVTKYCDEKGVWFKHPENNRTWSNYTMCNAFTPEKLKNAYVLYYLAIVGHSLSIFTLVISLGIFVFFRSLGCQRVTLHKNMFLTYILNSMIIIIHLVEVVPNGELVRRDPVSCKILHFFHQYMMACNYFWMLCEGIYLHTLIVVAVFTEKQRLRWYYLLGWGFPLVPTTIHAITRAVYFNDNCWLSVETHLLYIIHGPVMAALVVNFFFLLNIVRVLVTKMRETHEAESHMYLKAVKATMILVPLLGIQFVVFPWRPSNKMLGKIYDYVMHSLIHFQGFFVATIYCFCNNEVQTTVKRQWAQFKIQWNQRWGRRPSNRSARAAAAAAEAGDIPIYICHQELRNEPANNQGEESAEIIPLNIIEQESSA

[6] = target: T2, Glucocorticoid receptor (Homo sapiens, UniProt P04150); details: hela s3; note: in other assays of this panel Not Active means under 50% inhibition at 10 µM
T2 sequence (P04150 whole entry): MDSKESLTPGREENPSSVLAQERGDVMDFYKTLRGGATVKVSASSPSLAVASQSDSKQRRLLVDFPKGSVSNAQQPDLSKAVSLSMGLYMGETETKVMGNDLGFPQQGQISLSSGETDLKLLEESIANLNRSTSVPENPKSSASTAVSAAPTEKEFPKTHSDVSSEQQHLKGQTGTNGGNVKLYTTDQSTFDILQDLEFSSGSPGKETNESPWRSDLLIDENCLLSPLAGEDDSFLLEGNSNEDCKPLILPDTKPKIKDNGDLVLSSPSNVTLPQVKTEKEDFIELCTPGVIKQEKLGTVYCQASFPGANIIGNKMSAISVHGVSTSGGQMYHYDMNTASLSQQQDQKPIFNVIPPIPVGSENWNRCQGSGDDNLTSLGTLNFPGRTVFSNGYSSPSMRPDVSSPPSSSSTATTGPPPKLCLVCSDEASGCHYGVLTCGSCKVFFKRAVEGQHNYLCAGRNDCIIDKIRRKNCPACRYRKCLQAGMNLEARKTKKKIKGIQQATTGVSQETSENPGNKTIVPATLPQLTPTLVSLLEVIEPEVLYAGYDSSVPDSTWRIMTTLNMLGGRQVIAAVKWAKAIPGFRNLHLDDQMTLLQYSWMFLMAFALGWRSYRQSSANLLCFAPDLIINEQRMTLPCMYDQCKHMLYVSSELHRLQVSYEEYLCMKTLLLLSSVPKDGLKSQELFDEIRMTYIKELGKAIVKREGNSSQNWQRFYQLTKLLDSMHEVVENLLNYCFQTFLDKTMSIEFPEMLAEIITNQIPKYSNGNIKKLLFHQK

[7] = target: Cannabinoid receptor 1 (Homo sapiens, UniProt P21554); format: cell membranes, Membrane; details: chem-1; note: in other assays of this panel Not Active means under 50% inhibition at 10 µM
[8] = DRUGMATRIX: Nicotinic Acetylcholine radioligand binding (ligand: [125I] Epibatidine); format: cell membranes, Membrane; details: imr-32; Not Active = under 50% inhibition at 10 µM

Chain of Cannabinoid receptor 1 (P21554 whole entry): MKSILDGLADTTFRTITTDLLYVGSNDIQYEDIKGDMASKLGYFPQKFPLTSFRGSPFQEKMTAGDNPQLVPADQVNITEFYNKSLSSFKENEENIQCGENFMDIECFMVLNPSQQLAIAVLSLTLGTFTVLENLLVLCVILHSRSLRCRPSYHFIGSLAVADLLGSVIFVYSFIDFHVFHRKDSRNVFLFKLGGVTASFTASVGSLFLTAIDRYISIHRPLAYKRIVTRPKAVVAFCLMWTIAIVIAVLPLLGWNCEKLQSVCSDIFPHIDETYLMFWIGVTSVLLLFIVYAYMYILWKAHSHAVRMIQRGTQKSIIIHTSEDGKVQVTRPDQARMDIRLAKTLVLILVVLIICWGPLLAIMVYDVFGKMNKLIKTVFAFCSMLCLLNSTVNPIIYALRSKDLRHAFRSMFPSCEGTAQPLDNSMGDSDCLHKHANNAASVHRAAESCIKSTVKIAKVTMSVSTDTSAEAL

Row | Structure (SMILES) | IC50 [1] | IC50 [2] | Ki [2] | IC50 [3] | Ki [3] | IC50 [4] | Ki [4] | IC50 [5] | IC50 [6] | IC50 [7] | IC50 [8] | Ki [8] | IC50 ([2]; read-out: IC50) [nM] | Ki ([2]; read-out: Ki) [nM] | Ki [1] | Ki [5] | Ki [6] | Ki [7]
1 | CC(C)CN(C[C@@H](O)[C@H](Cc1ccccc1)NC(=O)O[C@H]1CCOC1)S(=O)(=O)c1ccc(N)cc1 | Not Active | Not Active | Not Active | Not Active | Not Active | Not Active | Not Active | Not Active | Not Active | Not Active | Not Active | Not Active |  |  |  |  |  | 
2 | c1ccc(Nc2ccc(Nc3ccccc3)cc2)cc1 | Not Active | Not Active | Not Active | Not Active | Not Active | Not Active | Not Active | Not Active | Not Active | Not Active | Not Active | Not Active |  |  |  |  |  | 
3 | NC(=O)N1c2ccccc2CCc2ccccc21 | Not Active | Not Active | Not Active | Not Active | Not Active | Not Active | Not Active | Not Active | Not Active | Not Active | Not Active | Not Active |  |  |  |  |  | 
4 | O=C1CC[C@@H](N2C(=O)c3ccccc3C2=O)C(=O)N1 | Not Active | Not Active | Not Active | Not Active | Not Active | Not Active | Not Active | Not Active | Not Active | Not Active | Not Active | Not Active |  |  |  |  |  | 
5 | Cc1onc(O)c1CC(N)C(=O)O (racemic) [(R,S)-AMPA] | Not Active | Not Active | Not Active | Not Active | Not Active | Not Active | Not Active | Not Active | Not Active | Not Active | Not Active | Not Active |  |  |  |  |  | 
6 | Cc1ccc2cc3c(ccc4ccccc43)c3c2c1CC3 [3-METHYLCHOLANTHRENE] | Not Active | Not Active | Not Active | Not Active | Not Active | Not Active | Not Active | Not Active | Not Active | Not Active | Not Active | Not Active |  |  |  |  |  | 
7 | CC[C@@]1(O)C[C@H](O[C@H]2C[C@H](N(C)C)[C@H](O[C@H]3C[C@H](O)[C@H](O[C@H]4CCC(=O)[C@H](C)O4)[C@H](C)O3)[C@H](C)O2)c2c(cc3c(c2O)C(=O)c2c(O)cccc2C3=O)[C@H]1C(=O)OC [ACLARUBICIN] | Not Active | Not Active | Not Active | Not Active | Not Active | Not Active | Not Active | Not Active | Not Active | Not Active | Not Active | Not Active |  |  |  |  |  | 
8 | Nc1nc2c(ncn2COCCO)c(=O)[nH]1 [ACYCLOVIR] | Not Active | Not Active | Not Active | Not Active | Not Active | Not Active | Not Active | Not Active | Not Active | Not Active | Not Active | Not Active |  |  |  |  |  | 
9 | Cc1c(C)c2c(c(C)c1O)CC[C@@](C)(CCC[C@H](C)CCC[C@H](C)CCCC(C)C)O2 [ALPHA-TOCOPHEROL] | Not Active | Not Active | Not Active | Not Active | Not Active | Not Active | Not Active | Not Active | Not Active | Not Active | Not Active | Not Active |  |  |  |  |  | 
10 | CN(C)c1nc(N(C)C)nc(N(C)C)n1 [ALTRETAMINE] | Not Active | Not Active | Not Active | Not Active | Not Active | Not Active | Not Active | Not Active | Not Active | Not Active | Not Active | Not Active |  |  |  |  |  | 
11 | Nc1c(Br)cc(Br)cc1CN[C@H]1CC[C@H](O)CC1 [AMBROXOL] | Not Active | Not Active | Not Active | Not Active | Not Active | Not Active | Not Active | Not Active | Not Active | Not Active | Not Active | Not Active |  |  |  |  |  | 
12 | NCCCCCC(=O)O [AMINOCAPROIC ACID] | Not Active | Not Active | Not Active | Not Active | Not Active | Not Active | Not Active | Not Active | Not Active | Not Active | Not Active | Not Active |  |  |  |  |  | 
13 | CCC1(c2ccc(N)cc2)CCC(=O)NC1=O (configuration not stated) [AMINOGLUTETHIMIDE] | Not Active | Not Active | Not Active | Not Active | Not Active | Not Active | Not Active | Not Active | Not Active | Not Active | Not Active | Not Active |  |  |  |  |  | 
14 | Cc1ccc(/N=C/N(C)/C=N/c2ccc(C)cc2C)c(C)c1 [AMITRAZ] | Not Active | Not Active | Not Active | Not Active | Not Active | Not Active | Not Active | Not Active | Not Active | Not Active | Not Active | Not Active |  |  |  |  |  | 
15 | CCOC(=O)C1=C(COCCN)NC(C)=C(C(=O)OC)C1c1ccccc1Cl (configuration not stated) [AMLODIPINE] | Not Active |  |  | Not Active | Not Active | Not Active | Not Active | Not Active | Not Active | Not Active | Not Active | Not Active | 31 | 20 |  |  |  | 
16 | COc1ccc(C[C@H]2NC[C@H](O)[C@H]2OC(C)=O)cc1 [ANISOMYCIN] | Not Active | Not Active | Not Active | Not Active | Not Active | Not Active | Not Active | Not Active | Not Active | Not Active | Not Active | Not Active |  |  | Not Active | Not Active | Not Active | Not Active
17 | Nc1ncn([C@@H]2O[C@H](CO)[C@@H](O)[C@H]2O)c(=O)n1 [AZACITIDINE] | Not Active | Not Active | Not Active | Not Active | Not Active | Not Active | Not Active | Not Active | Not Active | Not Active | Not Active | Not Active |  |  |  |  |  | 
18 | CN(C)C(=O)Oc1cc(OC(=O)N(C)C)cc(C(O)CNC(C)(C)C)c1 (configuration not stated) [BAMBUTEROL] | Not Active | Not Active | Not Active | Not Active | Not Active | Not Active | Not Active | Not Active | Not Active | Not Active | Not Active | Not Active |  |  |  |  |  | 
19 | C[C@]12CCC(=O)C=C1CC[C@@H]1[C@@H]2CC[C@@]2(C)[C@H]1CC[C@]2(C)O [METHYLTESTOSTERONE] | Not Active | Not Active | Not Active | Not Active | Not Active | Not Active | Not Active | Not Active |  | Not Active | Not Active | Not Active |  |  |  |  |  | 
20 | CN(C)CCCN1c2ccccc2Sc2ccccc21 [PROMAZINE] | Not Active | Not Active | Not Active | Not Active | Not Active | Not Active | Not Active | Not Active |  | Not Active | Not Active | Not Active |  |  |  |  |  | 
